In assay [1] the test system is A2780 (ovarian carcinoma). Nature of the assay: SRB cytotoxicity assay, A2780. Particulars: for EC50: Homo sapiens, SRB assay, 96 h of treatment, A2780; for Selectivity index (SI) A2780: SI = EC50 (NIH 3T3)/EC50 (A2780). Type of assay: cell-based, human. The method, then:
(§1) The cytotoxicity of ursolic and betulinic carboxamides 3–30 was determined in sulforhodamine B (SRB) assays.
(§2) The cell lines used were human cancer cell lines: 518A2 (melanoma), A2780 (ovarian carcinoma), HT29 (colon adenocarcinoma), MCF-7 (breast adenocarcinoma), 8505C (thyroid carcinoma) and non-malignant mouse fibroblasts NIH 3T3. Cultures were maintained as monolayers in RPMI 1640 medium with L-glutamine (Capricorn Scientific GmbH, Ebsdorfergrund, Germany) supplemented with 10% heat inactivated fetal bovineserum (Sigma-Aldrich Chemie GmbH, Steinheim, Germany) and penicillin/streptomycin (Capricorn Scientific GmbH, Ebsdorfergrund, Germany) at 37 °C in a humidified atmosphere with 5% CO2.
(§3) The cytotoxicity of the compounds was evaluated using the sulforhodamine-B (Kiton-Red S, ABCR) micro culture colorimetric assay. Cells were seeded into 96-well plates on day 0 at appropriate cell densities to prevent confluence of the cells during the period of experiment. After 24 h, the cells were treated with 6 different concentrations (1, 3, 7, 12, 20 and 30 µM) minimum. The final concentration of DMSO/DMF never exceeded 0.5%, which was non-toxic to the cells. After a 96 h treatment, the supernatant medium from the 96-well plates was discarded, the cells were fixed with 10% trichloroacetic acid (TCA) and allowed to rest at 4 °C. After 24 h fixation, the cells were washed in a strip washer and dyed with SRB solution (100 µL, 0.4% in 1% acetic acid) for about 20 min. After dying, the plates were washed four times with 1% acetic acid to remove the excess of the dye and allowed to air-dry overnight. Tris base solution (200 µL, 10 mM) was added to each well and absorbance was measured at λ = 570 nm using a 96-well plate reader (Tecan Spectra, Crailsheim, Germany). The EC50 values were averaged from three independent experiments performed each in triplicate calculated from semi logarithmic dose response curves applying a non-linear 4P Hills-slope equation (GraphPad Prism5; variables top and bottom were set to 100 and 0, respectively).
For orientation: The SRB assay estimates cell density from bound dye.

For assay [2], the system named is HT29 (colon adenocarcinoma). Description: SRB cytotoxicity assay, HT29. Type of assay: cell-based, human. Conditions: for EC50: Homo sapiens, HT-29, SRB assay, 96 h of treatment, HT29; for Selectivity index (SI) HT29: SI = EC50 (NIH 3T3)/EC50 (HT29). The method, then: as §1, §2, §3
The test system of assay [3] is MCF-7 (breast adenocarcinoma). Nature of the assay: SRB cytotoxicity assay, MCF-7. The format is cell-based, human. Particulars: for EC50: Homo sapiens, MCF7, SRB assay, 96 h of treatment, MCF-7; for Selectivity index (SI) MCF-7: SI = EC50 (NIH 3T3)/EC50 (MCF-7). The method, then: as §1, §2, §3
In assay [4] the test system is 8505C (thyroid carcinoma). Description: SRB cytotoxicity assay, 8505C. Type of assay: cell-based, human. Particulars: for EC50: Homo sapiens, SRB assay, 96 h of treatment, 8505C; for Selectivity index (SI) 8505C: SI = EC50 (NIH 3T3)/EC50 (8505C). The method, then: as §1, §2, §3
The subject of assay [5] is non-malignant mouse fibroblasts NIH 3T3. Description: SRB cytotoxicity assay, NIH 3T3. The format is cell-based. Conditions: NIH3T3, 96 h of treatment. The method, then: as §1, §2, §3
For assay [6], the system named is 518A2 (melanoma). Description: SRB cytotoxicity assay, 518A2. The format is cell-based, human. Conditions: for EC50: Homo sapiens, SRB assay, 96 h of treatment, 518A2; for Selectivity index (SI) 518A2: SI = EC50 (NIH 3T3)/EC50 (518A2). The method, then: as §1, §2, §3

Counter-ions that a name gives are not always drawn.

Broadly, the EC50 is the concentration that produces a half-maximal response. A lower EC50 goes with higher potency in that assay. As to `COc1cccc2c1C(=O)c1c(O)c3c(c(O)c1C2=O)C[C@@](O)(C(=O)CO)C[C@@H]3O[C@H]1C[C@H](N)[C@H](O)[C@H](C)O1` [DRC, doxorubicin hydrochloride, reference compound], the EC50 stood at 10 ± 10 nM in assay [1]; 900 ± 200 nM in assay [2]; 1100 ± 300 nM in assay [3]; 1100 ± 400 nM in assay [4]; 60 ± 30 nM in assay [5]; 200 ± 50 nM in assay [6]. Besides, the “Selectivity index (SI) A2780” value in assay [1] is given as 6.00. Besides, in assay [2], the “Selectivity index (SI) HT29” value worked out at 0.07. In addition, in assay [3], the “Selectivity index (SI) MCF-7” value was 0.05. In addition, the “Selectivity index (SI) 8505C” value in assay [4] turned out to be 0.05. The “Selectivity index (SI) 518A2” value in assay [6] was 0.30.

On to `C[C@H]1[C@H](C)CC[C@]2(C(=O)O)CC[C@]3(C)C(=CC[C@@H]4[C@@]5(C)CC[C@H](O)C(C)(C)[C@@H]5CC[C@]43C)[C@H]12` [UA, ursolic acid], for which, in assay [1], a half-maximal effect (EC50) was put at 11700 ± 600 nM and the “Selectivity index (SI) A2780” value is on record as 1.59. For the same molecule, in assay [2], the EC50 was determined as 10600 ± 700 nM and the “Selectivity index (SI) HT29” value was 1.76. Also, in assay [3], the 50% effective concentration (EC50) worked out at 12700 ± 100 nM and the “Selectivity index (SI) MCF-7” value was determined as 1.47. Further, in assay [4], the EC50 turned out to be 13500 ± 1500 nM and the “Selectivity index (SI) 8505C” value amounted to 1.39. Besides, the response in assay [5] was half-maximal at 18700 ± 1600 nM (EC50). In assay [6], it took 14700 ± 100 nM to reach a half-maximal effect (EC50) and the “Selectivity index (SI) 518A2” value is on record as 1.27.

As for `C=C(C)C1CC[C@]2(C(=O)NCCN)CC[C@]3(C)C(CCC4[C@@]5(C)CC[C@H](O)C(C)(C)C5CC[C@]43C)C12` (stereo partly drawn) [Compound 24, (3β)-N-(2-Aminoethyl)-3-hydroxy-lup-20(29)-en-28-amide], in assay [1], the EC50 amounted to 400 ± 30 nM and the “Selectivity index (SI) A2780” value stood at 1.00. In assay [2], a half-maximal effect (EC50) was put at 400 ± 20 nM and the “Selectivity index (SI) HT29” value is 1.00. In assay [3], a half-maximal response (EC50) required 400 ± 20 nM and the “Selectivity index (SI) MCF-7” value was found to be 1.00. In addition, in assay [4], a half-maximal response (EC50) required 400 ± 70 nM and the “Selectivity index (SI) 8505C” value turned out to be 1.00. In assay [5], this molecule displayed an EC50 of 400 ± 20 nM. In assay [6], the EC50 stood at 400 ± 10 nM and the “Selectivity index (SI) 518A2” value was found to be 1.00.

In the case of `C=C(C)[C@@H]1CC[C@]2(C(=O)O)CC[C@]3(C)[C@H](CC[C@@H]4[C@@]5(C)CC[C@H](O)C(C)(C)[C@@H]5CC[C@]43C)[C@@H]12` [BA, betulinic acid, reference compound], the EC50 in assay [1] was determined as 8800 ± 900 nM; in assay [2], 14400 ± 2300 nM; in assay [3] it was 10200 ± 1200 nM; in assay [5] it was 13100 ± 1100 nM; in assay [6], 9400 ± 700 nM. In addition, the “Selectivity index (SI) A2780” value in assay [1] is 1.49. Also, the “Selectivity index (SI) HT29” value in assay [2] was 0.91. Further, the “Selectivity index (SI) MCF-7” value in assay [3] was found to be 1.28. Besides, the “Selectivity index (SI) 518A2” value in assay [6] is 1.39.

Consider `C=C(C)C1CC[C@]2(C(=O)NCCN3CCCCC3)CC[C@]3(C)C(CCC4[C@@]5(C)CC[C@H](O)C(C)(C)C5CC[C@]43C)C12` (stereo partly drawn) [Compound 27, (3β)-N-(2-Piperidin-1-ylethyl)-3-hydroxy-lup-20(29)-en-28-amide], for which, in assay [1], the EC50 was 400 ± 100 nM and the “Selectivity index (SI) A2780” value was found to be 1.00. For the same molecule, in assay [2], the EC50 was found to be 400 ± 30 nM and the “Selectivity index (SI) HT29” value was 1.00. Moreover, in assay [3], the midpoint of the response, the EC50, lay at 400 ± 10 nM and the “Selectivity index (SI) MCF-7” value is 1.00. Also, in assay [4], the EC50 came out at 800 ± 90 nM and the “Selectivity index (SI) 8505C” value is 0.50. The molecule also registered a 50% effective concentration (EC50) in assay [5] of 400 ± 10 nM. In addition, in assay [6], the EC50 was 500 ± 100 nM and the “Selectivity index (SI) 518A2” value turned out to be 0.80.

(Values after PMC6222718, “Ethylenediamine Derived Carboxamides of Betulinic and Ursolic Acid as Potential Cytotoxic Agents” (Molecules : A Journal of Synthetic Chemistry and Natural …, 2018).)
